Laboratory results: patent US20100168102A9, “Amide Derivatives as Kinase Inhibitors” (Devgen NV, priority 2005, published 2010)

Experiments:
PKC epsilon = molecular target: T1, PKC epsilon (Homo sapiens, UniProt Q02156); assay: Biochemical assay for PKC epsilon (fluorescence polarization, Protein Kinase C Assay Kit, Red); settings: read-out: IC50 μM PKCε
T1 construct: purchased Invitrogen P2282
T1 sequence (Q02156 1-737): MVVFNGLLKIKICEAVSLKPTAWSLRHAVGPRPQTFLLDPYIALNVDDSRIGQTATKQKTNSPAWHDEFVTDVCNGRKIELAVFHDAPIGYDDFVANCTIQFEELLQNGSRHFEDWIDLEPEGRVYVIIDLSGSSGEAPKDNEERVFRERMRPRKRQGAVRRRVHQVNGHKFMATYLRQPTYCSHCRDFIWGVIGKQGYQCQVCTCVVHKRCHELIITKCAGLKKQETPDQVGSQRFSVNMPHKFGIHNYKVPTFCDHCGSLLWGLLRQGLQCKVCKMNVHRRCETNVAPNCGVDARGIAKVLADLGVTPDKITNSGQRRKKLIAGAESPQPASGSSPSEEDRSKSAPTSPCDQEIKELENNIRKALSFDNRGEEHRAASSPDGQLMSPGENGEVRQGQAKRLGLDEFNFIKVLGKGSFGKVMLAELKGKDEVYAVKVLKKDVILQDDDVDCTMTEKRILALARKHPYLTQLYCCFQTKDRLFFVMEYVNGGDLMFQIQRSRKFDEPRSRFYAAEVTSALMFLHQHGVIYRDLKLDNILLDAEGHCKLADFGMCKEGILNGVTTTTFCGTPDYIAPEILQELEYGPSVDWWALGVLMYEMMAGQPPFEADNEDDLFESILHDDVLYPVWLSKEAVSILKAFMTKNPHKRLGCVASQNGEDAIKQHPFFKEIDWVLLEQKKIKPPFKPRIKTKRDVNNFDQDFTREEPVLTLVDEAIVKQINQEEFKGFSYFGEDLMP
Summary of the method: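 PKC epsilon at 10 ng/ml final was preincubated 30 min at room temperature with compound in HEPES pH 7.4 with DTT and Triton X-100. ATP/protein substrate was then added in buffer with MgCl2 and CaCl2 for 80 min. The reaction was stopped with EDTA, phosphorylation was detected by fluorescence polarization with rhodamine tracer and anti-phosphoserine antibody, and IC50 values came from curve fits.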

human ROCKα/ROCKII mix = molecular target: T2, human ROCKα/ROCKII mix (Homo sapiens, UniProt O75116); assay: Biochemical assay for ROCK (fluorescence polarization, ROCK IMAP Kit)
T2 construct: purchased Upstate Biotechnology 14-451
T2 sequence (O75116 11-552 limits assumed): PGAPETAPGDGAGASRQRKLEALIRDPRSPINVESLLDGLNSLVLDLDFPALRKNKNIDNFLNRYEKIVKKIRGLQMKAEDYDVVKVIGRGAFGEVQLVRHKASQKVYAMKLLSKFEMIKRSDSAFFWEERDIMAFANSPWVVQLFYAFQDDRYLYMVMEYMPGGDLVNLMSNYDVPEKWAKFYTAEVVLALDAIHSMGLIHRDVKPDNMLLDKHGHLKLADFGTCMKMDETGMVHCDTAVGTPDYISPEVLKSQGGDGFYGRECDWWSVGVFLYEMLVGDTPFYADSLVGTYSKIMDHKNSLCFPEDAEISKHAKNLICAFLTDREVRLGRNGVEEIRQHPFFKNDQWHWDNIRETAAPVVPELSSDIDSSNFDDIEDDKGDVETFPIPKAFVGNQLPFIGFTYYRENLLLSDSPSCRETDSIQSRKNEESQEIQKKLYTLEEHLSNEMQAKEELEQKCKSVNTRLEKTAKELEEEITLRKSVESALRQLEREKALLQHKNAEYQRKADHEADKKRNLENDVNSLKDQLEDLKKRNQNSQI

Row | IC50 (PKC epsilon) [µM] | IC50 (human ROCKα/ROCKII mix) [µM] | Compound
1 | 0.5 to 5 | 0.5 to 5 | CN(CC(N)c1ccc(C(=O)Nc2ccncc2)cc1)C(=O)C1(c2ccc(F)cc2)CCCC1 (centres unmarked) [Compound 475, 4-(1-Amino-2-{[1-(4-fluoro-phenyl)-cyclopentanecarbonyl]-methyl-amino}-ethyl)-N-pyridin-4-yl-benzamide]
2 | 5 to 50 | 0.5 to 5 | CN(CC(N)c1ccc(C(=O)Nc2ccncc2)cc1)C(=O)Cc1cccc(F)c1F (centres unmarked) [Compound 477, 4-(1-Amino-2-{[2-(2,3-difluoro-phenyl)-acetyl]-methyl-amino}-ethyl)-N-pyridin-4-yl-benzamide]
3 | 5 to 50 | 0.5 to 5 | CN(CC(N)c1ccc(C(=O)Nc2ccncc2)cc1)C(=O)Cc1cc(F)ccc1F (centres unmarked) [Compound 478, 4-(1-Amino-2-{[2-(2,5-difluoro-phenyl)-acetyl]-methyl-amino}-ethyl)-N-pyridin-4-yl-benzamide]
4 | 5 to 50 | 0.5 to 5 | CN(CC(N)c1ccc(C(=O)Nc2ccncc2)cc1)C(=O)Cc1ccc(F)cc1F (centres unmarked) [Compound 479, 4-(1-Amino-2-{[2-(2,4-difluoro-phenyl)-acetyl]-methyl-amino}-ethyl)-N-pyridin-4-yl-benzamide]
5 | 5 to 50 | 0.5 to 5 | CN(CC(N)c1ccc(C(=O)Nc2ccncc2)cc1)C(=O)C1(c2ccc(F)cc2F)CC1 (centres unmarked) [Compound 481, 4-(1-Amino-2-{[1-(2,4-difluoro-phenyl)-cyclopropanecarbonyl]-methyl-amino}-ethyl)-N-pyridin-4-yl-benzamide]
6 | 0.5 to 5 | 0.5 to 5 | CN(CC(N)c1ccc(C(=O)Nc2ccncc2)cc1)C(=O)C(C)(C)c1ccc(F)c(F)c1 (centres unmarked) [Compound 485, 4-(1-Amino-2-{[2-(3,4-difluoro-phenyl)-2-methyl-propionyl]-methyl-amino}-ethyl)-N-pyridin-4-yl-benzamide]
7 | 0.5 to 5 | 0.5 to 5 | CN(CC(N)c1ccc(C(=O)Nc2ccncc2)cc1)C(=O)C1(c2ccc(F)c(F)c2)CC1 (centres unmarked) [Compound 486, 4-(1-Amino-2-{[1-(3,4-difluoro-phenyl)-cyclopropanecarbonyl]-methyl-amino}-ethyl)-N-pyridin-4-yl-benzamide]
8 | 0.5 to 5 | 0.5 to 5 | CN(CC(N)c1ccc(C(=O)Nc2ccncc2)cc1)C(=O)C1(c2ccc(F)c(F)c2)CCC1 (centres unmarked) [Compound 487, 4-(1-Amino-2-{[1-(3,4-difluoro-phenyl)-cyclobutanecarbonyl]-methyl-amino}-ethyl)-N-pyridin-4-yl-benzamide]
9 | 0.5 to 5 | 0.5 to 5 | CN(CC(N)c1ccc(C(=O)Nc2ccncc2)cc1)C(=O)C1(c2ccc(F)c(F)c2)CCCC1 (centres unmarked) [Compound 488, 4-(1-Amino-2-{[1-(3,4-difluoro-phenyl)-cyclopentanecarbonyl]-methyl-amino}-ethyl)-N-pyridin-4-yl-benzamide]
10 | 5 to 50 | 0.5 to 5 | CN(CC(N)c1ccc(C(=O)Nc2ccncc2)cc1)C(=O)Cc1ccc(Cl)cc1Cl (centres unmarked) [Compound 490, 4-(1-Amino-2-{[2-(2,4-dichloro-phenyl)-acetyl]-methyl-amino}-ethyl)-N-pyridin-4-yl-benzamide]
11 | 5 to 50 | 0.5 to 5 | CN(CC(N)c1ccc(C(=O)Nc2ccncc2)cc1)C(=O)Cc1ccc(Cl)c(Cl)c1 (centres unmarked) [Compound 491, 4-(1-Amino-2-{[2-(3,4-dichloro-phenyl)-acetyl]-methyl-amino}-ethyl)-N-pyridin-4-yl-benzamide]
12 | 5 to 50 | 0.5 to 5 | CN(CC(N)c1ccc(C(=O)Nc2ccncc2)cc1)C(=O)C1(c2ccc(Cl)c(Cl)c2)CC1 (centres unmarked) [Compound 493, 4-(1-Amino-2-{[1-(3,4-dichloro-phenyl)-cyclopropanecarbonyl]-methyl-amino}-ethyl)-N-pyridin-4-yl-benzamide]
13 | 5 to 50 | 0.5 to 5 | CN(CC(N)c1ccc(C(=O)Nc2ccncc2)cc1)C(=O)C1(c2ccc(Cl)c(Cl)c2)CCC1 (centres unmarked) [Compound 494, 4-(1-Amino-2-{[1-(3,4-dichloro-phenyl)-cyclobutanecarbonyl]-methyl-amino}-ethyl)-N-pyridin-4-yl-benzamide]
14 | 5 to 50 | 0.5 to 5 | CN(CC(N)c1ccc(C(=O)Nc2ccncc2)cc1)C(=O)C1(c2ccc(Cl)cc2Cl)CC1 (centres unmarked) [Compound 495, 4-(1-Amino-2-{[1-(2,4-dichloro-phenyl)-cyclopropanecarbonyl]-methyl-amino}-ethyl)-N-pyridin-4-yl-benzamide]
15 | 5 to 50 | 0.5 to 5 | CN(CC(N)c1ccc(C(=O)Nc2ccncc2)cc1)C(=O)Cc1c(F)cccc1Cl (centres unmarked) [Compound 496, 4-(1-Amino-2-{[2-(2-chloro-6-fluoro-phenyl)-acetyl]-methyl-amino}-ethyl)-N-pyridin-4-yl-benzamide]
16 | 5 to 50 | 0.5 to 5 | CN(CC(N)c1ccc(C(=O)Nc2ccncc2)cc1)C(=O)Cc1ccc(F)cc1Cl (centres unmarked) [Compound 498, 4-(1-Amino-2-{[2-(2-chloro-4-fluoro-phenyl)-acetyl]-methyl-amino}-ethyl)-N-pyridin-4-yl-benzamide]
17 | 5 to 50 | 0.5 to 5 | CN(CC(N)c1ccc(C(=O)Nc2ccncc2)cc1)C(=O)Cc1cccc(Cl)c1F (centres unmarked) [Compound 501, 4-(1-Amino-2-{[2-(3-chloro-2-fluoro-phenyl)-acetyl]-methyl-amino}-ethyl)-N-pyridin-4-yl-benzamide]
18 | 5 to 50 | 0.5 to 5 | CN(CC(N)c1ccc(C(=O)Nc2ccncc2)cc1)C(=O)Cc1ccc(Cl)cc1F (centres unmarked) [Compound 502, 4-(1-Amino-2-{[2-(4-chloro-2-fluoro-phenyl)-acetyl]-methyl-amino}-ethyl)-N-pyridin-4-yl-benzamide]
19 | 0.5 to 5 | 0.5 to 5 | CN(CC(N)c1ccc(C(=O)Nc2ccncc2)cc1)C(=O)C1(c2ccc(Cl)cc2F)CC1 (centres unmarked) [Compound 504, 4-(1-Amino-2-{[1-(4-chloro-2-fluoro-phenyl)-cyclopropanecarbonyl]-methyl-amino}-ethyl)-N-pyridin-4-yl-benzamide]
20 | 5 to 50 | 0.5 to 5 | CN(CC(N)c1ccc(C(=O)Nc2ccncc2)cc1)C(=O)C(C)(C)c1ccc(F)c(Cl)c1 (centres unmarked) [Compound 505, 4-(1-Amino-2-{[2-(3-chloro-4-fluoro-phenyl)-2-methyl-propionyl]-methyl-amino}-ethyl)-N-pyridin-4-yl-benzamide]
21 | 5 to 50 | 0.5 to 5 | CN(CC(N)c1ccc(C(=O)Nc2ccncc2)cc1)C(=O)C1(c2ccc(F)c(Cl)c2)CC1 (centres unmarked) [Compound 506, 4-(1-Amino-2-{[1-(3-chloro-4-fluoro-phenyl)-cyclopropanecarbonyl]-methyl-amino}-ethyl)-N-pyridin-4-yl-benzamide]
22 | 5 to 50 | 0.5 to 5 | CN(CC(N)c1ccc(C(=O)Nc2ccncc2)cc1)C(=O)C1CCCc2ccccc21 (centres unmarked) [Compound 512, 1,2,3,4-Tetrahydro-naphthalene-1-carboxylic acid {2-amino-2-[4-(pyridin-4-ylcarbamoyl)-phenyl]-ethyl}-methyl-amide]
23 | 5 to 50 | 0.5 to 5 | CN(CC(N)c1ccc(C(=O)Nc2ccncc2)cc1)C(=O)C1CCOc2ccc(Cl)cc21 (centres unmarked) [Compound 515, 6-Chloro-chroman-4-carboxylic acid {2-amino-2-[4-(pyridin-4-ylcarbamoyl)-phenyl]-ethyl}-methyl-amide]
24 | 5 to 50 | 0.5 to 5 | CN(CC(N)c1ccc(C(=O)Nc2ccncc2)cc1)C(=O)C1CCOc2ccc(F)cc21 (centres unmarked) [Compound 516, 6-Fluoro-chroman-4-carboxylic acid {2-amino-2-[4-(pyridin-4-ylcarbamoyl)-phenyl]-ethyl}-methyl-amide]
25 | 5 to 50 | 5 to 50 | CN(CC(N)c1ccc(C(=O)Nc2ccncc2)cc1)C(=O)C1CCSc2ccccc21 (centres unmarked) [Compound 517, Thiochroman-4-carboxylic acid {2-amino-2-{4-(pyridin-4-ylcarbamoyl)-phenyl]-ethyl}-methyl-amide]
26 | 5 to 50 | 5 to 50 | CN(CC(N)c1ccc(C(=O)Nc2ccncc2)cc1)C(=O)C1CCSc2ccc(F)cc21 (centres unmarked) [Compound 518, 6-Fluoro-thiochroman-4-carboxylic acid {2-amino-2-[4-(pyridin-4-ylcarbamoyl)-phenyl]-ethyl}-methyl-amide]
27 | 5 to 50 | 0.5 to 5 | CN(CC(N)c1ccc(C(=O)Nc2ccncc2)cc1)C(=O)C1CCCc2sccc21 (centres unmarked) [Compound 520, 4,5,6,7-Tetrahydro-benzo[b]thiophene-4-carboxylic acid {2-amino-2-[4-(pyridin-4-ylcarbamoyl)-phenyl]-ethyl}-methyl-amide]
28 | 0.5 to 5 | 0.05 to 0.5 | NC(c1ccc(C(=O)Nc2ccncc2)cc1)C1CCCN1C(=O)Cc1ccccc1 (centres unmarked) [Compound 521, 4-[Amino-(1-phenylacetyl-pyrrolidin-2-yl)-methyl]-N-pyridin-4-yl-benzamide]
